{"source": "paper PMC7891648", "about": "“A simple novel approach for detecting blood–brain barrier permeability using GPCR internalization” (Neuropathology and Applied Neurobiology, 2020)", "key": {"SST2 [1]": {"molecular_target": "T1, SST2 (Mus musculus, UniProt P30875)", "T1 construct": "The endogenous SST2 was immunolocalized using an extensively characterized rabbit monoclonal antibody; from tissue; host or cells: brain of adult C57Bl/6 mice, P7 OF1 mouse pups and C57Bl/6 embryos (E13.5-E18.5), in vivo", "T1 sequence (P30875 whole entry)": "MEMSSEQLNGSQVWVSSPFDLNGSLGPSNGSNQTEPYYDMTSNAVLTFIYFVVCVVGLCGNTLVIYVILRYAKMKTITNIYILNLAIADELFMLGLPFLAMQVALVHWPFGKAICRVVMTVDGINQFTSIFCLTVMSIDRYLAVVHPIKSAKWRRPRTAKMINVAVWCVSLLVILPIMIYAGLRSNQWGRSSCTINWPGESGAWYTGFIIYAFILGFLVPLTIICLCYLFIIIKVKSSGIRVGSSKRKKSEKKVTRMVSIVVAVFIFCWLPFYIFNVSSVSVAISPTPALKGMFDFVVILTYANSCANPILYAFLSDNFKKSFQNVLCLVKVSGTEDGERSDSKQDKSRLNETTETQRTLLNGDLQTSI", "assay": "In vivo model 2: focused ultrasound-mediated BBB disruption, extravasation detected by SST2 internalization or MRI", "settings": "after microbubble sonication of the targeted area, i.v.", "experimental": "BBB disruption induced by magnetic resonance imaging (MRI)‐guided focused ultrasound (FUS) (MRgFUS) was performed as previously reported [28].\nStereological measures of estimated volume in the in vivo model 2 was performed with the Volumest plug‐in [32] in the Fiji distribution of ImageJ [33]. Brightfield images of serial coronal sections separated by 180 μm were collected. The number of serial sections, the thickness of the sections, the sampling interval and pixel‐to‐μm scaling were entered into the Volumest plug‐in. Next, the cortical areas displaying BBB disruption detected by SST2 internalization were manually traced and the volume estimate was calculated in the Volumest plug‐in [32].\nAdult C57Bl/6 mice (n=3) were anaesthetized with isoflurane (1-2% at beginning, then 0.8% during MRI acquisition). The catheter was installed in the tail vein and the head was shaved with a depilatory cream. Mice were then installed on the MRgFUS system (Image Guided Therapy) and the transducer was placed on their head. MR contrast agent (MRCA) (Dotarem, Guerbet, France; 0.1 mL) was injected intravenously outside the MRI tunnel, before the baseline MRI acquisition. Mice were then removed from the MRI tunnel in order to inject the ultrasound contrast agent (UCA) (Sonovue, Bracco, Italy; 0.15 mL). […]"}, "[2]": {"system": "Human Primary Brain Microvascular Endothelial Cell (hPBMEC) monolayers", "assay": "Fluorescein permeability of hPBMEC monolayers (tight junction functionality)", "format": "in vitro ADME", "settings": "hPBMEC monolayer, with 1 M mannitol treatment 30 min, versus basal", "experimental": "The hPBMECs were cultured as previously described [31]. […] Differentiated hPBMECs with the BBB phenotype (TEER> 1000 Ωxcm^2) were treated or not with 1 M mannitol in serum‐free culture medium for 30 min to temporarily open tight junctions. Then, mannitol solution was removed and replaced by culture medium. Tight junction opening was evaluated with the measurements of fluorescein permeability, a small hydrophilic compound known to cross the BBB via the paracellular route. […] The medium of the abluminal compartment was then collected during a 2‐hour period (n = 3 per condition).\nThe experimentation was conducted in compliance with the French legislation, and the protocol was permitted by the French Ministry of Higher Education and Research (CODECOH DC-2014-2229). Brain capillaries were isolated using soft digestion of patient brain tissues and then seeded. Brain primary microvascular endothelial cells were shortly amplified and seeded on 12-well-type Transwell® (Corning, membrane area: 1.12 cm^2) with microporous membranes (pore size: 0.4 µm). Cells were cultured in EBM-2 medium (Lonza, Basel, Switzerland) supplemented with 20% serum and growth factors (Sigma-Aldrich, St. Louis, MO, USA). Transendothelial electrical resistance (TEER) was measured as an integrity marker and to assess cellular barrier tightness."}, "[3]": {"settings": "cited from earlier work", "from_the_text": "The Arc display several populations of neurons that are pivotal for regulating energy homoeostasis, food intake and cardiovascular functions. Because of this central role at the interface between the brain and the periphery, a few studies have hypothesized that the Arc could share common features with classical CVOs. […] We have therefore reinvestigated this subject using our approach. […] Membrane‐associated SST2 in Arc neurons intern ..."}, "[4]": {"settings": "cited from earlier work", "remark": "listed apart in the source"}, "SST2 [5]": {"molecular_target": "T2, SST2 (Rattus norvegicus, UniProt P30680)", "T2 sequence (P30680 whole entry)": "as the sequence (P30875 whole entry) above, with M3L, S4T, L8F, V15I, S16P, C168G, T335A counted along it", "settings": "P14 rats, 2.5 mg/kg i.p., 45 mins", "method": "Adult mice and post‐natal day 14 (P14) male rats. […] Brains were dissected, post‐fixed in the same fixative overnight at 4°C, cryoprotected, frozen in liquid isopentane at −45°C and sectioned in the coronal plane at a thickness of 30 μm and collected in PBS.\nThe SST2 receptor was immunolocalized on brain sections (in vivo models 1‐5), whole embryo sections (in vivo model 5) and DAOY cells (in vitro model). Brain sections were selected at the level of the circumventricular organs (in vivo model 1), at the level of the focused ultrasound‐mediated BBB opening (in vivo model 2), at the level of the ischaemia‐reperfusion lesions (in vivo model 3), at the level of the traumatic brain injury (in vivo model 4) and at the level of the caudal embryonic cortex (in vivo model 5). See Supporting Information for further details."}, "SST2 [6]": {"molecular_target": "T2, SST2", "assay": "In vivo model 3: juvenile cerebral ischaemia, OCT extravasation detected by SST2 internalization", "design": "two sensory CVOs in which neurons natively express the SST2; from tissue; host or cells: brain of P14 rats (area postrema, OVLT, arcuate nucleus, cerebral cortex), in vivo", "settings": "P14 rats, 2.5 mg/kg i.p., 45 mins", "method": "Ischaemia‐reperfusion. Ischaemia was induced in P14 rats as previously reported. See Supporting Information for further details.\nCerebral ischaemia. Isoflurane-anaesthetized P14 rats were exposed to proximal left middle cerebral artery electrocoagulation (MCAo) combined with a transient (60 min) double occlusion of common carotid arteries (CCAo). Carotid blood-flow restoration was assessed by release of the carotid clips."}, "[7]": {"assay": "Tolerability after acute OCT i.p. injection", "format": "in vivo", "settings": "rat and mice models, 2.5 mg/kg i.p."}}, "data": [{"compound": "CNC[C@H](O)[C@@H](O)[C@H](O)[C@H](O)CO.O=C([O-])CN1CCN(CC(=O)[O-])CCN(CC(=O)O)CCN(CC(=O)[O-])CC1.[Gd+3]", "note": "[gadolinium]", "values": [{"measurement": "Gd extravasation on T1-weighted MRI", "setting": "SST2 [1]", "result": "Extravasation was evident from the cerebral cortex to deep brain structures"}]}, {"compound": "O=C1OC2(c3ccc(O)cc3Oc3cc(O)ccc32)c2ccccc21", "note": "[fluorescein]", "values": [{"measurement": "increase of fluorescein permeability", "setting": "[2]", "result": "600 ± 25", "unit": "%"}]}, {"compound": "Cc1cc(-c2ccc(/N=N/c3ccc4c(S(=O)(=O)O)cc(S(=O)(=O)O)c(N)c4c3O)c(C)c2)ccc1/N=N/c1ccc2c(S(=O)(=O)O)cc(S(=O)(=O)O)c(N)c2c1O", "note": "[Evans blue]", "values": [{"measurement": "dye extravasation in the Arc", "setting": "[3]", "result": "extravasated only in the Arc of 24‐hour fasted mice but not in control‐fed mice"}]}, {"compound": "somatostatin", "values": [{"measurement": "half-life in the circulation", "setting": "[4]", "result": "2 to 3", "unit": "min"}]}, {"compound": "C[C@@H](O)[C@@H]1NC(=O)[C@H](CCCCN)NC(=O)[C@@H](Cc2c[nH]c3ccccc23)NC(=O)[C@H](Cc2ccccc2)NC(=O)[C@@H](NC(=O)[C@H](N)Cc2ccccc2)CSSC[C@@H](C(=O)N[C@H](CO)[C@@H](C)O)NC1=O", "note": "[OCT, octreotide]", "values": [{"measurement": "SST2 immunoreactivity in AP and OVLT (permeable capillaries)", "setting": "SST2 [5]", "result": "immunoreactivity was confined to intracytoplasmic granules near the nucleus and in proximal dendrites"}, {"measurement": "SST2 in arcuate nucleus neurons", "setting": "SST2 [5]; naïve animals", "result": "internalized and clustered in TGN‐like structures"}, {"measurement": "SST2 internalization around cortical lesion", "setting": "SST2 [6]; 6 h after ischaemia", "result": "few neurons with internalized receptors were visible"}, {"measurement": "SST2 internalization around cortical lesion", "setting": "SST2 [6]; 12 h after ischaemia", "result": "a larger number of neurons with internalized SST2 are localized in a narrow band"}, {"measurement": "SST2 internalization around cortical lesion", "setting": "SST2 [6]; 24 h after ischaemia", "result": "induced large areas of SST2 internalization around the core of the cortical lesion"}, {"measurement": "physiological or behavioural parameters after acute i.p. injection until perfusion", "setting": "[7]", "result": "did not observe any gross changes in physiological or behavioural parameters"}]}]}
